Measurements published in US11229642B2, “Composition and method for reducing neutropenia” (BeyondSpring Pharmaceuticals, Inc., priority 2016, dated 2022).
Like-named read-outs stand apart in the source and are kept apart here.

Tests used:
[1] = tested on: cis-platin induced neutropenia; type: in vivo, Male Sprague-Dawley rats
Description: Male Sprague-Dawley rats were first treated with cis-platin or vehicle saline (control). […] Each test group included 6 rats.
The ANC decreased following cisplatin administration.

[2] = tested on: cyclophosphamide-induced neutropenia; conditions: for ANCs (Mean ± SD): Day −1 (pre-dose baseline), N = 5 rats per group
Protocol: The control sample contained 7.1% Tween 80 (v/v), 25.5% Propylene glycol (v/v), and 67.4% D5W (5% dextrose in water) (v/v). Each test group included 15 rats.
Blood collection was performed for absolute neutrophil counts in blood samples collected at Day −1 (pre-dose), Day 2 (24 h), Day 3 (48 h), Day 10 (9 days) and Day 15 (14 days).
These were expressed as a percentage of the control level on Day 3.

[3] = tested on: doxorubicin induced neutropenia; test: Example 3: ANC in doxorubicin induced neutropenia; type: in vivo, Male Sprague-Dawley rats; conditions: for ANC level expressed as Percent Naïve Group (% Naïve): doxorubicin 3 mg/kg, plinabulin 7.5 mg/kg in the combination
Protocol: Male Sprague-Dawley rats were first treated with doxorubicin or vehicle saline (control). […] Each test group included 6 rats. The doxorubicin was administered intravenously, and plinabulin was administered through intraperitoneal injection.

[4] = tested on: neutropenia caused by cyclophosphamide; test: Example 1: neutrophil count after cyclophosphamide, plinabulin or the combination; type: in vivo, male Sprague-Dawley rats; conditions: all rats, Days −1, 2, 3 and 10; FIG. 3
Protocol: Fifteen rats each were placed in 4 treatment groups according to Table 1. The indicated doses were administered through intraperitoneal injection on Day 1 with Administration 2 being given 1 hour following Administration 1.
D5W is 5% dextrose in water for injection. For groups that included administration of plinabulin, plinabulin is first dissolved in the Tween 80-PG mixture and then diluted with D5W.
The animals were randomized based on body weight and assigned to groups. Before the initiation of dosing, any assigned animals considered unsuitable for use in the study were replaced by alternate animals obtained from the same shipment and maintained under the same environmental conditions.
Blood was collected by jugular venipuncture for Day −1 bleeds and terminally via abdominal aorta under anesthesia for Day 2 (5 rats per Group i.e. total 20 rats), Day 3 (5 rats per Group i.e. total 20 rats) and Day 10 (5 rats per Group i.e. total 20 rats). After collection, the samples were tested for total and differential cell counts. Five rats per group were terminated on Days 2, 3, and 10. Animals were anesthetized with isoflurane (1-5%) and ˜1-2.0 mL of blood will be collected via abdominal aorta. After collection, 0.3 mL was transferred to EDTA tubes and analyzed for total and differential cell counts. […]

[5] = tested on: topotecan induced neutropenia; test: Example 5: ANC in topotecan induced neutropenia; type: in vivo, adult male Sprague-Dawley rats
Protocol: Topotecan (0.25 or 1.0 mg/kg IV) was administered to adult male Sprague-Dawley rats on Days 1, 3 and 5. Topotecan was administered by intravenous infusion over a period of 30 minutes using a syringe infusion pump and sterile disposable syringes at a dose volume of 10 mL/kg.
Plinabulin (3.75 mg/kg, IP) was dosed 1 hour post topotecan following each topotecan dose. Plinabulin (7.5 mg/kg IP) was dosed 1 hour after the topotecan dose (0.25 mg/kg) on Day 1 only.
Blood collection was performed Days −2, 0, 2, 4, 6, 7, 8, 9, 10 for the pilot and Days −2, 0, 2, 3, 4, 5, 6, 7, 8, 10, 15 for the main study. Blood samples collected on day 3 were analyzed for total and differential blood cell counts.

For N.N.[Cl][Pt][Cl] [Cisplatin, reference compound], the ANCs ([1]; Day 3 (cisplatin ANC nadir), cisplatin 6.5 mg/kg alone) was 0.93 ± 0.28 10^3 Cells/μL, the ANCs ([1]; Day −1 (predose), cisplatin 6.5 mg/kg group) was 2.03 ± 0.81 10^3 Cells/μL and the “Day 3 ANCs Expressed as Percent of Baseline (Day −1)” value (“Day 3 ANCs Expressed as Percent” below) ([1]; cisplatin 6.5 mg/kg alone) was 45.8%.

With O=P1(N(CCCl)CCCl)NCCCO1 (centres unmarked) [Cyclophosphamide] the “ANCs (Mean ± SD)” value [2] was 1.68 ± 0.19 10^3 Cells/μL and the induction of neutropenia ([2]; single intra-peritoneal injection of cyclophosphamide) was “induced neutropenia in rats at around 48 h”.

In the case of COc1cccc2c1C(=O)c1c(O)c3c(c(O)c1C2=O)C[C@@](O)(C(=O)CO)C[C@@H]3O[C@H]1C[C@H](N)[C@H](O)[C@H](C)O1 [Doxorubicin], the “time after administration at which neutropenia effect of doxorubicin was seen” value ([3]; ANC as percentage of naïve animals, severity increased until Day 5) is reported as no more than 24 h, the “ANC level, Mean” value ([3]; Day 2, doxorubicin 3.0 mg/kg IV alone) is reported as 4.37 ± 10^3/μL and the “ANC level expressed as Percent Naïve Group (% Naïve)” value ([3]; Day 2) is reported as 52.6%. The “ANC level, Mean” value ([3]; Day 3, doxorubicin 3.0 mg/kg IV alone) was 0.88 ± 10^3/μL, the “ANC level expressed as Percent Naïve Group (% Naïve)” value ([3]; Day 3) was 50.9% and the “ANC level, Mean” value ([3]; Day 4, doxorubicin 3.0 mg/kg IV alone) was 1.02 ± 10^3/μL. The “ANC level expressed as Percent Naïve Group (% Naïve)” value ([3]; Day 4) was 30.8%, the “ANC level, Mean” value ([3]; Day 5, doxorubicin 3.0 mg/kg IV alone) was 0.65 ± 10^3/μL and the “ANC level expressed as Percent Naïve Group (% Naïve)” value ([3]; Day 5) was 19.2%. The “ANC level, Mean” value ([3]; Day 8, doxorubicin 3.0 mg/kg IV alone) was 0.97 ± 10^3/μL, the “ANC level expressed as Percent Naïve Group (% Naïve)” value ([3]; Day 8) was 32.3% and the “ANC level, Mean” value ([3]; Day −1 (pre-dose), doxorubicin 3.0 mg/kg IV group) was 1.79 ± 10^3/μL. The induction of neutropenia ([3]; doxorubicin 3.0 mg/kg) was “induced a long-lasting neutropenia” and the “duration of ANC decrease following doxorubicin administration” value ([3]; doxorubicin 3 mg/kg IV single dose) was “at least 8 days”.

CC(C)(C)c1[nH]cnc1/C=c1\[nH]c(=O)/c(=C/c2ccccc2)[nH]c1=O [Plinabulin, (3Z,6Z)-3-Benzylidene-6-{[5-(2-methyl-2-propanyl)-1H-imidazol-4-yl]methylene}-2,5-piperazinedione] was tested, and the “ANCs (Mean ± SD)” value [2] was 1.69 ± 0.21 10^3 Cells/μL, the ANCs ([1]; Day 3, plinabulin 4.9 mg/kg alone) was 2.42 ± 0.73 10^3 Cells/μL and the ANCs ([1]; Day 3, plinabulin 7.5 mg/kg alone) was 4.55 ± 1.41 10^3 Cells/μL. For the same molecule, the ANCs ([1]; Day −1 (predose), plinabulin 4.9 mg/kg group) was 1.98 ± 0.47 10^3 Cells/μL, the ANCs ([1]; Day −1 (predose), plinabulin 7.5 mg/kg group) was 2.12 ± 0.25 10^3 Cells/μL and the “ANC levels vs predose levels, plinabulin one hour post cisplatin” value ([1]; plinabulin 2.3 mg/kg, 4.9 mg/kg and 7.5 mg/kg one hour post cisplatin, Day 3) was “not significantly different from the predose levels”. For the same molecule, the “Day 3 ANCs Expressed as Percent” value ([1]; plinabulin 4.9 mg/kg alone) was 122.2%, the “change of ANC levels by plinabulin alone” value ([1]; plinabulin 4.9 mg/kg alone, Day 3 vs predose) was “did not change ANC levels” and the “Day 3 ANCs Expressed as Percent” value ([1]; plinabulin 7.5 mg/kg alone) was 214.6%. For the same molecule, the “reduction of neutropenia caused by cyclophosphamide, time course” value [4] was “reduced the neutropenia caused by cyclophosphamide”, the “ANC level, Mean” value ([3]; Day 2, plinabulin 7.5 mg/kg IP alone) was 5.24 ± 10^3/μL and the “ANC level, Mean” value ([3]; Day 3, plinabulin 7.5 mg/kg IP alone) was 1.98 ± 10^3/μL. For the same molecule, the “ANC level, Mean” value ([3]; Day 4, plinabulin 7.5 mg/kg IP alone) was 2.17 ± 10^3/μL, the “ANC level, Mean” value ([3]; Day 5, plinabulin 7.5 mg/kg IP alone) was 2.13 ± 10^3/μL and the “ANC level, Mean” value ([3]; Day 8, plinabulin 7.5 mg/kg IP alone) was 3.18 ± 10^3/μL. The “ANC level, Mean” value ([3]; Day −1 (pre-dose), plinabulin 7.5 mg/kg IP group) was 2.02 ± 10^3/μL, the “ANC in plinabulin only treated rats vs naïve animals” value ([3]; plinabulin 7.5 mg/kg IP alone, all time points) was “not statistically different from naïve animals at any time point” and the “effect of plinabulin on doxorubicin effect (ANC), Days 2 and 3” value ([3]; plinabulin 7.5 mg/kg, Days 2 and 3 post dose) was “significantly diminished the effect of doxorubicin”. For the same molecule, the “effect of plinabulin on doxorubicin-induced neutropenia, days 5 and 8” value ([3]; plinabulin 7.5 mg/kg, days 5 and 8) was “ameliorated the doxorubicin-induced neutropenia to a lesser degree”, the “effect of plinabulin on doxorubicin-induced neutropenia” value ([3]; plinabulin 3.5 and 7.5 mg/kg IP, one hour after doxorubicin) was “significantly reduced the doxorubicin-induced neutropenia” and the “effect of plinabulin on topotecan-induced neutropenia” value ([5]; plinabulin 3.75 and 7.5 mg/kg IP, one hour after topotecan) was “significantly reduced the topotecan-induced neutropenia”.

With CC[C@@]1(O)C(=O)OCc2c1cc1n(c2=O)Cc2cc3c(CN(C)C)c(O)ccc3nc2-1 [topotecan, reference compound] the induction of neutropenia ([5]; topotecan 1 or 0.25 mg/kg IV on Days 1, 3 and 5, FIGS. 11A, 11B) was “induced a long-lasting neutropenia”.
